Data on five substances can be found in paper PMC6349357, “Computational and experimental analysis of bioactive peptide linear motifs in the integrin adhesome” (PLoS ONE, 2019).

One data set deals with resting platelets. Briefly: Platelet aggregation induced by peptide in resting washed platelets (activation). It counts as cell-based, human (healthy volunteers). The conditions noted are these: for Activation, 5μM / Activation, 20μM: S3 Table, n=3; for Activation, 5μM: peptide 5 μM; for Activation, 20μM: peptide 20 μM; for Activation: platelet aggregation in resting platelets after 6 minutes incubation with peptide, pal-peptides 20 μM, tat-peptides 50 μM, optical density, aggregometer, mean, n>=3; for Aggregation before TRAP activation, donor d: replicate donor d; for Aggregation before TRAP activation, donor f: replicate donor f; for Aggregation before TRAP activation, donor g: replicate donor g. In outline: (§1)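 Washed human platelets (from ACD blood, PGE1-treated) were used at 3x10^5/μl in buffer A pH 7.4 with 1.8 mM CaCl2. Light-transmission aggregometry ran at 37°C with stirring at 1100 rpm. Peptide or buffer was added at 2 min, TRAP 6 min later, and aggregation was recorded for a further 7 min.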

The format of data set [1] is physicochemical. As for the experimental part: Peptides were stored in powder form at -80°C. Prior to use, they were left at room temperature for one hour. They were then mixed with a specific volume of deionised water to bring them to a 1mM concentration and were then aliquoted and frozen at -80°C. They were thawed a single time before use and discarded after an experiment. Peptides which were not soluble in deionised water (pal-APTNEFYA, pal-LEEDDEEGE, pal-TNITYRGT and pal-KLLITIHDRKE) were dissolved in a 10% DMSO and 90% deionised water solution (leading to a final concentration of 0.2% DMSO when combined with platelets, see below). These peptides were further diluted during platelet aggregations.

The next data set deals with TRAP-activated platelets. Description: Inhibition of TRAP-induced platelet aggregation after pre-incubation with peptide. The data set is classed as cell-based, human (healthy volunteers). The conditions noted are these: for Aggregation after TRAP, peptide alone 1x (A 1x / B 1x) / Aggregation after TRAP, peptide alone 2x (A 2x / B 2x): TRAP 2 μM after 6 minutes pre-incubation, mean n = 3; for Aggregation after TRAP, peptide alone 1x (A 1x / B 1x): 4 μM pal-peptides, 10 μM tat-peptides; for Aggregation after TRAP, peptide alone 2x (A 2x / B 2x): double concentration of 4 μM (pal) / 10 μM (tat); for Aggregation after TRAP activation, donor d: replicate donor d; for Aggregation after TRAP activation, donor f: replicate donor f; for Aggregation after TRAP activation, donor g: replicate donor g. The method in brief: as §1

The test system of data set [2] is tyrosine phosphorylation in platelets. Description: Phosphotyrosine western blot (4G10) of platelets treated with peptide. The data set is classed as cell-based, human (healthy volunteers). Details: key to Phospho: R: in resting platelets; A: after TRAP activation. The conditions noted are these: phosphorylation changes associated with peptide treatment; pal 20 μM, tat 50 μM, TRAP 4 μM. How it is done: A platelet concentration of 3x10^5 /μl was used when performing standard aggregations and a concentration of 1x10^6 /μl was used for sample preparation for western blot analysis. The extent of platelet aggregation was measured by quantifying the optical density of the samples using the Bio-Data PAP-8 aggregometer (platelet aggregation profiler, Horsham, PA, USA). A temperature of 37°C was maintained and samples were stirred using magnets spinning at 1100 rpm. 200 μl of washed platelets was added to each aggregation tube. Different volumes of buffer, peptide and TRAP were added to achieve the desired concentrations. Peptide/buffer was added to each well after two minutes. TRAP, with a final concentration depending on the experiment, was added 6 minutes later and data was collected for an additional 7 minutes.
After the aggregation step, tubes were immediately placed on ice. 27 μl of lysis buffer was then added and the tube was vortexed vigorously. Lysates were left on ice for one hour and vortexed frequently. Proteins were then centrifuged at 14,000 rcf for 10 minutes to remove debris. Samples were then mixed with 2x sample buffer. 50 μl each sample was added to 50 μl of sample buffer. The protein was then denatured by heating to 95°C for 5 minutes. 10 μl of lysate was kept for protein quantification. All samples and lysates were frozen at -80°C.
The Bradford assay was then performed on the lysates to determine protein concentration. Protein concentrations were measured using the Bio-Rad DC Protein Assay. A calibration was created using samples containing a known concentration of bovine serum albumin. These were prepared in advance by sequential dilutions with final concentrations of 1.5mg/ml, 1mg/ml, 0.8mg/ml, 0.6mg/ml, 0.4mg/ml, 0.2mg/ml, 0mg/ml. Samples were then dispensed into a 96 well plate and the Bio-Rad DC reagents were added as described in the protocol. Samples were left to rest for 15 minutes and were then read using 690 0.15 mode on the Wallac plate reader. A standard curve was calculated from the standard samples of known concentration and the y = ax+b equation was used to determine the concentration of the other samples.
Sodium Dodecyl Sulfate Polyacrylamide Gel Electrophoresis (SDS-PAGE) was performed to separate proteins by molecular weight. Polyacrylamide gels were prepared (see Reagents section). Samples or molecular markers were loaded in volumes to give 20 μg of protein. The gels were then run for approximately 80 minutes or until the samples reached the end of the gel. The proteins were then transferred to polyvinylidene difluoride (PVDF) membranes using a Bio-Rad Wet Blot Transfer Cell apparatus. During the transfer the membranes were submerged in 1x transfer buffer (10% 10x transfer buffer, 70% deionised water and 20% methanol). Transfer was performed either overnight at 40 volts at 4°C, or at 100 volts for 1 hour cooled with an ice block. After the transfer the membranes were blocked for 1 hour using 3% bovine albumin serum (BSA) dissolved in TBS-T. Membranes were incubated with 4G10 antibody with a 1:1000 dilution. Unbound primary antibody was washed off with TBS-T three times for 5 minutes each. Membranes were then incubated with anti-mouse IgG secondary antibody (Millipore) with a dilution of 1:30,000. Membranes were submerged in chemiluminescence ECL solution (Thermo Scientific). They were then measured using the western blot developer UVP. One image was taken every 80 seconds for 40 minutes. Numeric data was extracted from selected blots using ImageJ.
In general terms: Immunoblotting shows a protein as a band on a membrane.

Setting [3] is: S3 Table, peptide 5 μM, aggregation after TRAP, n=3.
The mark [4] stands for this setting: S3 Table, peptide 20 μM, aggregation after TRAP, n=3.
Setting [5] is: platelet aggregation induced by 4 μM TRAP in platelets pre-incubated with peptide (low value = inhibition), pal-peptides 20 μM, tat-peptides 50 μM, mean, n>=3.
[6] abbreviates: TRAP 4 μM, pal 20 μM, tat 50 μM.

Marks after values point to notes of the source that are not given here.

In the case of “pal-APTNEFYA [pal-SDC4_tail, N-terminally palmitylated syndecan-4 tail peptide]”, in the data set on resting platelets (unit assumed), the Activation, 5μM came out at 2%; the Activation, 20μM is 2%; the Activation was determined as 7%. This substance had an Activation, donor 14 06 13 with resting platelets (replicate 14_06_13, SDC4 peptides and controls, 20 μM, unit assumed) of 2%. In addition, the “Activation, donor 18_06_13” value with resting platelets (replicate 18_06_13, SDC4 peptides and controls, 20 μM, in % (unit assumed)) is listed as 3. Moreover, in the data set on resting platelets (replicate 20_06_13, SDC4 peptides and controls, 20 μM, in % (unit assumed)), the “Activation, donor 20_06_13” value was 2. The same substance registered an Activation, donor 20 08 13 in the data set on resting platelets (replicate 20_08_13, SDC4 peptides and controls, 20 μM, unit assumed) of 5%. For the same substance, in the data set with resting platelets (replicate 22_08_13_DONOR1, SDC4 peptides and controls, 20 μM), the “Activation, donor 22_08_13_DONOR1” value is 2. Besides, in the data set on resting platelets (replicate 22_08_13_DONOR2, SDC4 peptides and controls, 20 μM), the “Activation, donor 22_08_13_DONOR2” value amounted to 2. Also, in the data set with resting platelets (pal 20 μM, tat 50 μM), the “Aggregation before TRAP activation, donor d” value is 2; the “Aggregation before TRAP activation, donor f” value is given as 4; the “Aggregation before TRAP activation, donor g” value is listed as 15. The “Solubility in deionised water” value in data set [1] was “not soluble”. Further, the “Aggregation (inhibition effects of syndecan-derived peptides)” value in the data set with TRAP-activated platelets (S2 Table A, peptide 20 μM, TRAP 4 μM, mean, n=6) was found to be 34. Also, the “Summary of effects of SDC4-derived palmitylated peptides and scrambled controls, 20μM” value with TRAP-activated platelets (S2 Table B / S2 Fig, 20 μM, activation of resting platelets and inhibition of aggregation induced by 4 μM TRAP, in words) was “Inhibitor”. The “Platelet aggregation remaining after TRAP (low = inhibition)” value with TRAP-activated platelets (setting [3]) was 61. The “Platelet aggregation remaining after TRAP (low = inhibition)” value in the data set with TRAP-activated platelets (setting [4]) came to 34. Also, in the data set with TRAP-activated platelets, the “Aggregation after TRAP, peptide alone 1x (A 1x / B 1x)” value (shortened to “Aggregation … (A 1x / B 1x)”) was 27.67 and the “Aggregation after TRAP, peptide alone 2x (A 2x / B 2x)” value (shortened to “Aggregation … (A 2x / B 2x)”) turned out to be 24.67. Also, the “Platelet aggregation after TRAP activation” value in the data set on TRAP-activated platelets (setting [5]) was 34 ^*. The “Inhibition, donor 14_06_13” value with TRAP-activated platelets (replicate 14_06_13, peptide 20 μM, TRAP 4 μM) is 40. In the data set on TRAP-activated platelets (replicate 18_06_13, peptide 20 μM, TRAP 4 μM), the “Inhibition, donor 18_06_13” value is recorded as 67. Moreover, the “Inhibition, donor 20_06_13” value with TRAP-activated platelets (replicate 20_06_13, peptide 20 μM, TRAP 4 μM) worked out at 51. Besides, the “Inhibition, donor 20_08_13” value with TRAP-activated platelets (replicate 20_08_13, peptide 20 μM, TRAP 4 μM) is 11. The “Platelet aggregation remaining after TRAP (low = inhibition)” value in the data set with TRAP-activated platelets (replicate 22_08_13_DONOR1, peptide 20 μM, TRAP 4 μM) was 6. Also, in the data set with TRAP-activated platelets (replicate 22_08_13_DONOR2, peptide 20 μM, TRAP 4 μM), the “Platelet aggregation remaining after TRAP (low = inhibition)” value is recorded as 34. In the data set on TRAP-activated platelets (setting [6]), the “Aggregation after TRAP activation, donor d” value was 9; the “Aggregation after TRAP activation, donor f” value is given as 54; the “Aggregation after TRAP activation, donor g” value was 41.

With “pal-TNITYRGT [pal-ITGB3_tail, N-terminally palmitylated ITGB3 tail peptide]”, in the data set with resting platelets (unit assumed), the Activation is 3%. In the data set with resting platelets (pal 20 μM, tat 50 μM), the “Aggregation before TRAP activation, donor d” value stood at 2; the “Aggregation before TRAP activation, donor f” value came out at 5; the “Aggregation before TRAP activation, donor g” value stood at 3. Further, in data set [1], the “Solubility in deionised water” value is “not soluble”. Besides, the “Platelet aggregation remaining after TRAP (low = inhibition)” value in the data set with TRAP-activated platelets (setting [5]) stood at 71. In addition, in the data set with TRAP-activated platelets (setting [6]), the “Aggregation after TRAP activation, donor d” value is recorded as 74; the “Aggregation after TRAP activation, donor f” value is given as 77; the “Aggregation after TRAP activation, donor g” value worked out at 63.

For “pal-KLLITIHDRKE-(NH2) [pal-ITGB3_JM, N-terminally palmitylated ITGB3 juxtamembrane peptide]”, the Activation with resting platelets (unit assumed) was 4%. In the data set with resting platelets (pal 20 μM, tat 50 μM), the “Aggregation before TRAP activation, donor d” value was determined as 4; the “Aggregation before TRAP activation, donor f” value turned out to be 3; the “Aggregation before TRAP activation, donor g” value is reported as 5. The “Solubility in deionised water” value in data set [1] is reported as “not soluble”. Also, the “Platelet aggregation remaining after TRAP (low = inhibition)” value in the data set on TRAP-activated platelets (setting [5]) stood at 73. In the data set with TRAP-activated platelets (setting [6]), the “Aggregation after TRAP activation, donor d” value is given as 76; the “Aggregation after TRAP activation, donor f” value is on record as 77; the “Aggregation after TRAP activation, donor g” value stood at 68.

“pal-LEEDDEEGE [pal-ITGA2B_tail, N-terminally palmitylated ITGA2B tail peptide]”: the Activation in the data set with resting platelets (unit assumed) stood at 2%. Also, in the data set on resting platelets (pal 20 μM, tat 50 μM), the “Aggregation before TRAP activation, donor d” value came out at 2; the “Aggregation before TRAP activation, donor f” value is 3; the “Aggregation before TRAP activation, donor g” value is recorded as 2. In addition, the “Solubility in deionised water” value in data set [1] was “not soluble”. Also, in the data set with TRAP-activated platelets, the “Aggregation … (A 1x / B 1x)” value was found to be 65.67 and the “Aggregation … (A 2x / B 2x)” value worked out at 66. The “Platelet aggregation remaining after TRAP (low = inhibition)” value in the data set on TRAP-activated platelets (setting [5]) is reported as 52. Besides, in the data set on TRAP-activated platelets (setting [6]), the “Aggregation after TRAP activation, donor d” value is recorded as 74; the “Aggregation after TRAP activation, donor f” value worked out at 76; the “Aggregation after TRAP activation, donor g” value stood at 4.

With “pal-KVGFFKR-(NH2) [pal-ITGA2B_JM, N-terminally palmitylated ITGA2B juxtamembrane peptide KVGFFKR]”, in the data set with resting platelets (unit assumed), the Activation, 5μM was found to be 66% and the Activation, 20μM is 62%. Besides, in the data set with resting platelets, the Activation was 17 ^*. The “Aggregation before TRAP activation, donor h” value with resting platelets (replicate donor h, pal 20 μM, tat 50 μM) is 30. Moreover, the “Aggregation before TRAP activation, donor i” value in the data set with resting platelets (replicate donor i, pal 20 μM, tat 50 μM) is on record as 11. Also, the “Aggregation before TRAP activation, donor j” value with resting platelets (replicate donor j, pal 20 μM, tat 50 μM) is 12. In addition, in data set [2], the Phospho entry was “R”. The “Platelet aggregation remaining after TRAP (low = inhibition)” value with TRAP-activated platelets (setting [3]) stood at 73. In the data set with TRAP-activated platelets (setting [4]), the “Platelet aggregation remaining after TRAP (low = inhibition)” value was found to be 69. Besides, in the data set on TRAP-activated platelets, the “Aggregation … (A 1x / B 1x)” value is 37.33 and the “Aggregation … (A 2x / B 2x)” value came out at 49.33. In addition, the “Platelet aggregation remaining after TRAP (low = inhibition)” value with TRAP-activated platelets (setting [5]) came to 50. Moreover, the “Aggregation after TRAP activation, donor h” value in the data set with TRAP-activated platelets (replicate donor h, TRAP 4 μM, pal 20 μM, tat 50 μM) is given as 52. Moreover, in the data set with TRAP-activated platelets (replicate donor i, TRAP 4 μM, pal 20 μM, tat 50 μM), the “Aggregation after TRAP activation, donor i” value is recorded as 36. The “Aggregation after TRAP activation, donor j” value in the data set on TRAP-activated platelets (replicate donor j, TRAP 4 μM, pal 20 μM, tat 50 μM) was 64.
